Data on 12 compounds can be found in patent publication US5872281A, “Amino acid derivative having N,N-dialkylaminophenyl group” (Santen Pharmaceutical Co., Ltd., priority 1995, dated 1999).

For experiment [1], the target named is T1, LTA4 hydrolase (Cavia porcellus, UniProt P19602).
T1 construct: prepared by extracting roughly from guinea pig lung; from tissue; host or cells: guinea pig (Hartley) lung, 100,000×g supernatant, 40-70% ammonium sulfate fraction, dialyzed
T1 sequence (P19602 1-611): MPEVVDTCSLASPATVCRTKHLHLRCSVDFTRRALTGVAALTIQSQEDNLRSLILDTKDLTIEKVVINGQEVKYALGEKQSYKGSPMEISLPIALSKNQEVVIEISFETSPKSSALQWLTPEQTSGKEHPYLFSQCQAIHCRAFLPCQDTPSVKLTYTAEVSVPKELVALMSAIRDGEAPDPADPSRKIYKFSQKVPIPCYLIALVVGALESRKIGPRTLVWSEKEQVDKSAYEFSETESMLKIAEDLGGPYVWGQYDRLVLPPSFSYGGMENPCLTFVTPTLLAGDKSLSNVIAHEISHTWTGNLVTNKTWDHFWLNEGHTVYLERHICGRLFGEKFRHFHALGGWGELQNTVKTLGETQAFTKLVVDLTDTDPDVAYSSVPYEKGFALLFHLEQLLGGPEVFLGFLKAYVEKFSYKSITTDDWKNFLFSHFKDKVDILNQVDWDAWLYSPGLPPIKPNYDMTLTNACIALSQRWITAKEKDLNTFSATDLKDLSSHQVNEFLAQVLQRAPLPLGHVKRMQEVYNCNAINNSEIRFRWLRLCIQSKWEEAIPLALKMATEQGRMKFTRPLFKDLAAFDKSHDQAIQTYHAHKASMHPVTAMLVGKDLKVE
The experiment is described as follows: LTA4 hydrolase inhibition, LTB4 produced from LTA4 (guinea pig lung enzyme preparation), measured by HPLC. The format is biochemical. Particulars: LTA4 63 μM; HEPES 50 mM, pH 7.8; enzyme preparation 0.4-0.6 mg protein; DTT 3 mM; 37° C., one minute; read-out: IC50 (concentration required to inhibit LTA4 hydrolase by 50%). On the procedure: Izumi et al. had reported a method of measuring LTA4 hydrolase activity by measuring an amount of LTB4 produced by an enzymatic reaction using LTA4 as a substrate (Biochem. Biophys. Res. Commun., 135, 139-145 (1986)). Effects of the present compounds on LTA4 hydrolase were examined according to the method described in the literature.
An enzyme preparation used in this pharmacological test was prepared by extracting roughly from guinea pig lung by the following method, according to the method of Izumi et al. (Biochem. Biophys. Res. Commun., 135, 139-145 (1986)) and the method of Evans et al. (Biochem. Biophys. Acta, 840, 43-50 (1985)).
Lungs were excised from Hartley guinea pigs (body weight: 330 g). The lungs were homogenized in phosphoric acid buffer (50 mM, pH 7.4, containing 1 mM ethylenediaminetetraacetic acid (EDTA) and 1 mM dithiothreitol (DTT)) having weight three times that of the lungs under ice-cooling. The homogenate was centrifuged at low speed (800×g) for 20 minutes, centrifuged at high speed (10,000×g) for 20 minutes and ultraccntrifugcd (100,000×g) for 60 minutes to give a supernatant. The supernatant was brought to 40% saturation by adding a saturated aqueous ammonium sulfate solution (pH 7.0-7.2, containing 1 mM DTT) dropwise under ice-cooling and centrifuged at high speed (10,000×g) for 20 minutes. The resulting supernatant was brought to 70% saturation by adding a saturated aqueous ammonium sulfate solution (pH 7.0-7.2, containing 1 mM DTT) dropwise and centrifuged at high speed (10,000×g) for 20 minutes. The obtained pellet was dissolved in 2 ml of Tris-acetic acid buffer (20 mM, pH 7.8, containing 1 mM DTT) and dialyzed in 2 liters of the solution to give the enzyme preparation.
LTA4 used, which is the substrate, was prepared by hydrolyzing LTA4 methyl ester and dissolved in ethanol.
In order to examine effects of the present compounds on the enzyme preparation, reactions were performed under the following condition using mixed solutions consisting of the composition shown in Table 1. […]
HEPES buffer 50 mM, pH 7.8
Enzyme preparation 0.4-0.6 mg protein
The above-mentioned solution (50 μl) was incubated at 37° C. for one minute. To the reaction mixture was added 100 μl of a mixed liquid of acetonitrile-ethanol-acetic acid (150:50:3, volume ratio) under ice-cooling. The mixture was allowed to stand at -20° C. for 30 minutes and centrifuged at high speed (10,000×g) for five minutes to give a supernatant. An amount of LTB4 produced in the supernatant was measured by high-speed liquid chromatography.
The degree of the inhibitory effect of each test compound on LTA4 hydrolase is expressed by the inhibition rate calculated by the following equation. [formula] Results

The subject of experiment [2] is LTA4 hydrolase. Particulars: JP-A 2-134375; J. Med. Chem., 37, 3197-3199 (1994); cited from earlier work.
Experiment [3] has as its system arthritis in a collagen-induced arthritis model. Particulars: J. Med. Chem., 37, 3197-3199 (1994); cited from earlier work.

Regarding `CCC(CS)C(=O)N[C@@H](CSCc1ccc(N(C)C)cc1)C(=O)O` (mixture of isomers) [Compound No. 3-22, (2R)-3-[4-(N,N-Dimethylamino)benzylthio]-2-[(2RS)-2-ethyl-3-mercaptopropionylamino]propionic acid], in experiment [1], the IC50 is 400 nM.

As for `CCCC(CS)C(=O)N[C@@H](CSCc1ccc(N(C)C)cc1)C(=O)O` (mixture of isomers) [Compound No. 3-23, (2R)-3-[4-(N,N-Dimethylamino)benzylthio]-2-[(2RS)-3-mercapto-2-propylpropionylamino]propionic acid], the IC50 in experiment [1] came out at 290 nM.

Consider `CC(C)C(CS)C(=O)N[C@@H](CSCc1ccc(N(C)C)cc1)C(=O)O` (mixture of isomers) [Compound No. 3-24, (2R)-3-[4-(N,N-Dimethylamino)benzylthio]-2-[(2RS)-2-isopropyl-3-mercaptopropionylamino]propionic acid], for which the IC50 in experiment [1] came out at 1100 nM. On to `CN(C)c1ccc(CSC[C@H](NC(=O)C(CS)CCc2ccccc2)C(=O)O)cc1` (single isomer, unassigned) [Compound No. 3-26, (2R)-3-[4-(N,N-Dimethylamino)benzylthio]-2-[(2S or 2R)-2-phenetyl-3-mercaptopropionylamino]propionic acid], for which, in experiment [1], the IC50 was 500 nM.

As to `CN(C)c1ccc(CSC[C@H](NC(=O)C(CS)CCc2ccccc2)C(=O)O)cc1` (single isomer, unassigned) [Compound No. 3-27, (2R)-3-[4-(N,N-Dimethylamino)benzylthio]-2-[(2R or 2S)-2-phenetyl-3-mercaptopropionylamino]propionic acid], the IC50 in experiment [1] was found to be 3800 nM. On to `O=C(O)c1cccc(C2CO2)c1` (stereo not shown) [3-Oxiranyl benzoic acid], for which the “LTA4 hydrolase inhibitory activity (reported, in words)” value in experiment [2] is recorded as “LTA4 hydrolase inhibitory activity”. As to `O=C(O)C1(c2ccc3c(c2)OC[C@H](Cc2ccc(-c4ccccc4)cc2)[C@H]3O)CCCC1` [(+)-1-(3S, 4R)-[3-(4-phenylbenzyl)-4-hydroxychroman-7-yl]cyclopentanecarboxylic acid], in experiment [3], the “inhibition of sideration of arthritis (in words)” value is “inhibit sideration of arthritis”. For the same compound, the “LTA4 hydrolase inhibitory activity (reported, in words)” value in experiment [2] is “LTA4 hydrolase inhibitory activity”. For `C[C@H](CS)C(=O)N[C@@H](CSCc1ccc(N(C)C)cc1)C(=O)O` [Compound No. 3-1, (2R)-3-[4-(N,N-Dimethylamino)benzylthio]-2-[(2S)-3-mercapto-2-methylpropionylamino]propionic acid], in experiment [1], the IC50 stood at 240 nM. For `CCN(CC)c1ccc(CSC[C@H](NC(=O)[C@H](C)CS)C(=O)O)cc1` [Compound No. 3-9, (2R)-3-[4-(N,N-Diethylamino)benzylthio]-2-[(2S)-3-mercapto-2-methylpropionyl]aminopropionic acid], the IC50 in experiment [1] was 900 nM.

For the compound `C[C@H](S)C(=O)N[C@@H](CSCc1ccc(N(C)C)cc1)C(=O)O` [Compound No. 3-19, (2R)-3-[4-(N,N-Dimethylamino)benzylthio]-2-[(2S)-2-mercaptopropionylamino]propionic acid], the IC50 in experiment [1] was found to be 5600 nM. The same measure, in the same setting: then `C[C@@H](CS)C(=O)N[C@@H](CSCc1ccc(N(C)C)cc1)C(=O)O` [Compound No. 3-21, (2R)-3-[4-(N,N-Dimethylamino)benzylthio]-2-[(2R)-3-mercapto-2-methylpropionylamino]propionic acid], with 1500 nM; and `CCOC(=O)[C@H](CSCc1ccc(N(C)C)cc1)NC(=O)[C@H](C)CS` [Compound No. 8-1, Ethyl (2R)-3-[4-(N,N-dimethylamino)benzylthio]-2-[(2S)-3-mercapto-2-methylpropionylamino]propionate], with 590 nM.
